Data from article PMC5217663, “Iridoids from Canthium subcordatum iso-butanol fraction with potent biological activities” (BMC Complementary and Alternative Medicine, 2017).
Converted amounts (≈) assume the structure as drawn. Where two headings read alike, the source gives them in different places.

What was measured:
Vibrio cholerae SG24 (1) = test: Broth microdilution MIC/MBC; format: cell-based; conditions: for MBC / MIC: Vibrio cholerae; for MBC/MIC: Vibrio cholerae SG24 (1); for MIC: 24 h
Description: (§1) A total of six bacterial strains were tested for their susceptibility to compounds and these strains were taken from our laboratory collection (kindly provided by Dr. T. Ramamurthy, NICED, Kolkata). Among the clinical strains of Vibrio cholerae used in this study, strains NB2 and SG24(1) belonged to O1 and O139 serotypes, respectively. […] The bacterial strains were maintained on agar slant at 4 °C and subcultured on a fresh appropriate agar plates 24 h prior to any antibacterial test. The Mueller Hinton Agar (MHA) was used for the activation of bacteria. The Mueller Hinton Broth (MHB) and nutrient agar (Hi-Media) were used for the MIC and MBC determinations respectively.
(§2) MIC values were determined by a broth micro-dilution method as described earlier [14] with slight modifications. […] Then, 100 μl of each concentration was added in each well (96-well microplate) containing 95 μl of MHB and 5 μl of inoculums (at 1.5 × 10^6 CFU/ml) for final concentrations varying from 0.25–512 μg/ml. […] The plates were covered with sterile lids, then the contents of each well were mixed using a shaker and incubated at 35 °C for 24 h. […] MIC values were defined as the lowest sample concentrations that prevented this change in color indicating an inhibition of visible growth. Viable microorganisms reduced the yellow dye to a pink color. […] The lowest concentrations that yielded no growth after this subculturing were taken as the MBC values [15]. All the analyses were carried out in triplicate.

Vibrio cholerae CO6 = test: Broth microdilution MIC/MBC; format: cell-based; conditions: for MBC / MBC/MIC: CO6; for MIC: CO6, 24 h
Description: as §1, §2

Vibrio cholerae NB2 = test: Broth microdilution MIC/MBC; format: cell-based; conditions: for MBC / MBC/MIC: NB2
Description: as §1, §2

Vibrio cholerae PC2 = test: Broth microdilution MIC/MBC; format: cell-based; conditions: for MBC / MBC/MIC: PC2
Description: as §1, §2

Shigella flexneri SDINT = test: microbe, parasite or virus in culture; format: cell-based
Description: as §1, §2

[1] = tested on: Staphylococcus aureus ATCC 25923; test: microbe, parasite or virus in culture; format: cell-based; conditions: for MBC / MIC: Staphylococcus aureus; for MBC: ATCC25923; for MIC: ATCC25923, 24 h
Description: as §1, §2

[2] = tested on: Vibrio cholerae, Shigella flexneri and Staphylococcus aureus; test: Broth microdilution MIC/MBC, summary over all six tested strains; format: cell-based; conditions: for MIC: read-out: antibacterial activity class (pure compounds)
Description: as §1, §2

[3] = DPPH free radical scavenging assay; conditions: 30 min, room temperature, 517 nm
Description: The free radical scavenging activity of extracts as well as most of their isolated compounds was performed according to Brand-Williams et al. with slight modifications. Briefly, different concentrations (10 to 2000 μg/ml) of extracts/compounds and vitamin C (positive control) were thoroughly mixed with 3 ml of methanolic DPPH solution (20 mg/l) in test-tubes and the resulting solution was kept standing for 30 min at room temperature before the optical density (OD) was measured at 517 nm. The percentage radical scavenging activity was calculated from the following formula: % scavenging [DPPH] = [(A0–A1)/A0] × 100 [16]. Where A0 was the absorbance of the negative control (methanolic DPPH solution) and A1 was the absorbance in the presence of the samples. IC50 value was determined from the graph obtained using standard vitamin C by using the “y = mx + c” formula from the slope of the graph. All the analyses were carried out in triplicate.

[4] = Gallic acid equivalent antioxidant capacity (GAEAC) assay; conditions: ABTS/laccase, 420 nm, 240 s
Description: The GAEAC test was done as previously described [17] with slight modifications. In a quartz cuvette, to 950 μl acetate buffer (pH =5.0, 100 mM), the following were added: 20 μl laccase (1 mM stock solution), 20 μl test sample, 10 μl ABTS (2,2’-azinobis(3-ethylbenzothiazoline-6-sulfonic acid) (74 mM stock solution). The laccase were purified from Sclerotinia sclerotiorum according to the protocol described [18]. The sample concentrations in the assay mixture were 800, 400, 200, 100, 10 μg/ml for the extracts and 200, 100, 50, 25, 125.5 μg/ml for the isolated compounds. The content of the generated ABTS^●+ radical was measured at 420 nm after 240 s reaction time and was converted to gallic acid equivalents by the use of a calibration curve (Pearson’s correlation coefficient: r = 0.996) constructed with 0, 4, 10, 14, 28, 56, 84 μM gallic acid standards rather than Trolox. Experiments were done in triplicate.

| Compound | MBC (Vibrio cholerae SG24 (1)) | MIC (Vibrio cholerae SG24 (1)) | MBC (Vibrio cholerae CO6) | MBC/MIC (Vibrio cholerae CO6) | MIC (Vibrio cholerae CO6) | MBC (Vibrio cholerae NB2; Vibrio cholerae) | MIC (Vibrio cholerae NB2; Vibrio cholerae, NB2, 24 h) | MBC (Vibrio cholerae PC2; Vibrio cholerae) | MIC (Vibrio cholerae PC2; Vibrio cholerae, PC2, 24 h) | MBC (Shigella flexneri SDINT; Shigella flexneri) | MIC (Shigella flexneri SDINT; Shigella flexneri, 24 h) | MBC/MIC [1] | MBC [1] | MIC [1] | MBC/MIC (Vibrio cholerae NB2; Vibrio cholerae) | MBC/MIC (Vibrio cholerae PC2; Vibrio cholerae) | MBC/MIC (Shigella flexneri SDINT) | MIC [2] | other results |
| --- | --- | --- | --- | --- | --- | --- | --- | --- | --- | --- | --- | --- | --- | --- | --- | --- | --- | --- | --- |
| CC1(C)S[C@@H]2[C@H](NC(=O)[C@H](N)c3ccccc3)C(=O)N2[C@H]1C(=O)O [Ampicillin, reference compound] | 16 µg/mL (≈ 45.8 µM) | 16 µg/mL (≈ 45.8 µM) | 16 µg/mL (≈ 45.8 µM) | 1 | 16 µg/mL (≈ 45.8 µM) | > 512 µg/mL | > 512 µg/mL | > 512 µg/mL | > 512 µg/mL | > 512 µg/mL | > 512 µg/mL | 1 | 8 µg/mL (≈ 22.9 µM) | 8 µg/mL (≈ 22.9 µM) |  |  |  |  | MBC/MIC (Vibrio cholerae SG24 (1)): 1; MIC (Vibrio cholerae NB2; Vibrio cholerae NB2, 35 °C, 24 h): not active; MIC (Vibrio cholerae PC2; Vibrio cholerae PC2, 35 °C, 24 h): not active; MIC (Shigella flexneri SDINT): not active |
| COC(=O)C1=CO[C@@H](O)[C@@H]2C(COC(=O)C3=CO[C@@H](O)[C@@H]4C(COC(C)=O)=CC[C@H]34)=CC[C@H]12 [Compound 1, canthiumoside 1] | 128 µg/mL (≈ 277 µM) | 64 µg/mL (≈ 138 µM) | 64 µg/mL (≈ 138 µM) | 1 | 64 µg/mL (≈ 138 µM) | 64 µg/mL (≈ 138 µM) | 64 µg/mL (≈ 138 µM) | 64 µg/mL (≈ 138 µM) | 64 µg/mL (≈ 138 µM) | 64 µg/mL (≈ 138 µM) | 32 µg/mL (≈ 69.2 µM) | 1 | 32 µg/mL (≈ 69.2 µM) | 32 µg/mL (≈ 69.2 µM) | 1 | 1 | 2 | 10 to 100 µg/mL (≈ 21.6 to 216 µM) | MBC/MIC (Vibrio cholerae SG24 (1)): 2; EC50 (concentration scavenging 50% of DPPH radical) [3]: 2.03 µg/mL; GAEAC (gallic acid equivalent antioxidant capacity) [4]: 79.82 µg/mL; GAEAC (gallic acid equivalent antioxidant capacity) ([4]; listed as Canthiumoside 1): 79.82 to 92.35 µg/mL |
| COC(=O)C1=COC(O)C2C(COC(=O)C3=COC(OC4OC(CO)C(O)C(O)C4O)C4C(COC(C)=O)=CCC34)=CCC12 (stereo not drawn) [Compound 2, canthiumoside 2] | > 256 µg/mL | 256 µg/mL (≈ 410 µM) | 256 µg/mL (≈ 410 µM) | 2 | 128 µg/mL (≈ 205 µM) | 128 µg/mL (≈ 205 µM) | 128 µg/mL (≈ 205 µM) | 256 µg/mL (≈ 410 µM) | 256 µg/mL (≈ 410 µM) | 256 µg/mL (≈ 410 µM) | 128 µg/mL (≈ 205 µM) | 1 | 64 µg/mL (≈ 102 µM) | 64 µg/mL (≈ 102 µM) | 1 | 1 | 2 | > 100 µg/mL |  |
| COC(=O)C1=COC(OC2OC(CO)C(O)C(O)C2O)C2C(COC(=O)C3=COC(OC4OC(CO)C(O)C(O)C4O)C4C(COC(C)=O)=CCC34)=CCC12 (stereo not drawn) [Compound 3, canthiumoside 3] |  | > 256 µg/mL | 256 µg/mL (≈ 325 µM) | 2 | 128 µg/mL (≈ 163 µM) | 256 µg/mL (≈ 325 µM) | 256 µg/mL (≈ 325 µM) | > 256 µg/mL | 256 µg/mL (≈ 325 µM) | > 256 µg/mL | 256 µg/mL (≈ 325 µM) |  | > 256 µg/mL | 256 µg/mL (≈ 325 µM) | 1 |  |  | > 100 µg/mL | tested organisms inhibited [2]: 83.33% |
| COC(=O)C1=COC(OC2OC(CO)C(O)C(O)C2O)C2C(COC(=O)C3=COC(OC4OC(CO)C(O)C(O)C4O)C4C(CO)=CCC34)=CCC12 (stereo not drawn) [Compound 4, canthiumoside 4] |  |  |  |  |  |  |  |  |  |  |  |  |  |  |  |  |  |  | EC50 (concentration scavenging 50% of DPPH radical) [3]: 178.57 µg/mL; GAEAC (gallic acid equivalent antioxidant capacity) [4]: 22.63 µg/mL |
| COC(=O)C1=COC(OC2OC(CO)C(O)C(O)C2O)C2C(COC(=O)C3=COC(OC(C)=O)C4C(C)CCC34)=CCC12 (stereo not drawn) [Compound 5a, canthiumoside 5a] | > 256 µg/mL | 256 µg/mL (≈ 419 µM) | 256 µg/mL (≈ 419 µM) | 2 | 128 µg/mL (≈ 210 µM) | 128 µg/mL (≈ 210 µM) | 128 µg/mL (≈ 210 µM) | 256 µg/mL (≈ 419 µM) | 128 µg/mL (≈ 210 µM) | 128 µg/mL (≈ 210 µM) | 128 µg/mL (≈ 210 µM) | 1 | 128 µg/mL (≈ 210 µM) | 128 µg/mL (≈ 210 µM) | 1 | 2 | 1 | > 100 µg/mL |  |
| COC(=O)C1=CO[C@@H](O)[C@H]2[C@@H]1CC[C@]2(C)O [Compound 7, linearin] |  |  |  |  |  |  |  |  |  |  |  |  |  |  |  |  |  |  | MIC (range over the tested bacteria) ([2]; range over all tested strains): 8 to 64 µg/mL |
| COC(=O)C1=COC(OC2OC(CO)C(O)C(O)C2O)C2C1CCC2(C)O (stereo not drawn) [Compound 8, mussaenoside] | > 256 µg/mL | 256 µg/mL (≈ 656 µM) | 256 µg/mL (≈ 656 µM) | 1 | 256 µg/mL (≈ 656 µM) | > 256 µg/mL | 128 µg/mL (≈ 328 µM) | 256 µg/mL (≈ 656 µM) | 128 µg/mL (≈ 328 µM) | 256 µg/mL (≈ 656 µM) | 128 µg/mL (≈ 328 µM) | 2 | 128 µg/mL (≈ 328 µM) | 64 µg/mL (≈ 164 µM) |  | 2 | 2 | > 100 µg/mL |  |
| COC(=O)C1=CO[C@@H](O[C@@H]2O[C@H](CO)[C@@H](O)[C@H](O)[C@H]2O)[C@H]2[C@@H]1[C@H](O)C[C@]2(C)O [Compound 9, shanzhiside methyl ester] | 128 µg/mL (≈ 315 µM) | 128 µg/mL (≈ 315 µM) | > 256 µg/mL |  | 128 µg/mL (≈ 315 µM) | 128 µg/mL (≈ 315 µM) | 128 µg/mL (≈ 315 µM) | 256 µg/mL (≈ 630 µM) | 256 µg/mL (≈ 630 µM) | 256 µg/mL (≈ 630 µM) | 128 µg/mL (≈ 315 µM) | 2 | 256 µg/mL (≈ 630 µM) | 128 µg/mL (≈ 315 µM) | 1 | 1 | 2 | > 100 µg/mL | MBC/MIC (Vibrio cholerae SG24 (1)): 1 |
| COC(=O)C1=CO[C@@H](O)[C@H]2[C@@H]1[C@H](O)C[C@]2(C)O [compound 6] | 256 µg/mL (≈ 1050 µM) | 128 µg/mL (≈ 524 µM) | 256 µg/mL (≈ 1050 µM) |  | 256 µg/mL (≈ 1050 µM) | 256 µg/mL (≈ 1050 µM) | 256 µg/mL (≈ 1050 µM) | 256 µg/mL (≈ 1050 µM) | 128 µg/mL (≈ 524 µM) | 64 µg/mL (≈ 262 µM) | 32 µg/mL (≈ 131 µM) |  | 64 µg/mL (≈ 262 µM) | 32 µg/mL (≈ 131 µM) |  |  |  | > 100 µg/mL |  |
| COC(=O)C1=CO[C@@H](O)[C@H]2[C@@H]1CC[C@]2(C)O [compound 7] | 64 µg/mL (≈ 280 µM) | 32 µg/mL (≈ 140 µM) | 128 µg/mL (≈ 561 µM) |  | 64 µg/mL (≈ 280 µM) | 32 µg/mL (≈ 140 µM) | 32 µg/mL (≈ 140 µM) | 32 µg/mL (≈ 140 µM) | 32 µg/mL (≈ 140 µM) | 16 µg/mL (≈ 70.1 µM) | 16 µg/mL (≈ 70.1 µM) |  | 8 µg/mL (≈ 35.1 µM) | 8 µg/mL (≈ 35.1 µM) |  |  |  | 10 to 100 µg/mL (≈ 43.8 to 438 µM) |  |
| O=C1O[C@H]([C@@H](O)CO)C(O)=C1O [vitamin C, reference compound] |  |  |  |  |  |  |  |  |  |  |  |  |  |  |  |  |  |  | EC50 (concentration scavenging 50% of DPPH radical) [3]: 1.74 µg/mL |
